Reference: patent US11904020B2, “Bicyclic peptide ligands specific for TREM2” (Bicycle Tx Limited, priority 2021, dated 2024)
*1 amine or outer side, *2 acyl side, *3 side chain or, on linkers, in order; H or OH if unused. Where a SMILES comes first, the peptide text is derived from it. Bridges are numbered along the chain shown (N, C = ends). [ ]: non-standard residue; d: D form. TATA = O=C(CC[*:1])N1CN(C(=O)CC[*:2])CN(C(=O)CC[*:3])C1; 1Nal = N[C@@H](Cc1cccc2ccccc12)C(=O)O

Target: TREM2 extracellular domain (ECD) (residues 19-131, C-terminally biotinylated, deglycosylated or glycosylated) (Homo sapiens, UniProt Q9NZC2)
Experiment: biochemical
Conditions: Human BLI (Kd; nM) (deglycosylated), deglycosylated human TREM2 ECD, steady-state KD, 25° C.
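Also: Bio-layer interferometry in 50 mM HEPES pH 7.5 with 150 mM NaCl and 0.1% Tween, double-referenced with blank wells and unrelated-protein sensors, equilibrium response fitted versus concentration.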

TREM2 extracellular domain (ECD) (residues 19-131, C-terminally biotinylated, deglycosylated or glycosylated), sequence (Q9NZC2 19-131): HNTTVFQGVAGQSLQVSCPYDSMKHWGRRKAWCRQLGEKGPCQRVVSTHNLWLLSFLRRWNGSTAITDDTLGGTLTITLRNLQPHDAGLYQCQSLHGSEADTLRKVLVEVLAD
Method: Bio-layer interferometry was performed on an Octet RED384® system (Sartorius) at 25° C. in a buffer containing 50 mM HEPES (pH 7.5), 150 mM NaCl and 0.1% Tween. TREM2 extracellular domain (ECD) (residues 19-131, C-terminally biotinylated, deglycosylated or glycosylated) was loaded onto Superstreptavidin biosensors (SSA, 18-5070, Sartorius) at 0.0125 mg/ml for 300 s. Bicycle peptides (10 mM in DMSO) were dispensed into 384-Well Tilted-Bottom Plates (18-5076, Sartorius) using an Echo liquid handler giving a final DMSO concentration of 0.125% in all wells including control wells. Association of defined concentrations of bicyclic peptide (0-12.5 μM, 1:2 dilutions for 7 points) was recorded over 120 s followed by dissociation in buffer over 120 s. Reference wells containing no bicycle peptides and reference sensors loaded with an unrelated protein (His-tagged MLLT3a) were subjected to the same assay protocol and double reference subtraction was used for processing to account for non-specific binding. Traces were analysed using Octet Software (Version 11.0). Association and dissociation curves were globally fit and the response at equilibrium (Req) plotted against concentration to obtain steady-state KD values.

Row | Structure (SMILES) | Kd (Table 4A) [nM] | Kd (Table 4B) [nM]
1 | C[C@H](N)C(=O)N[C@H]1CSCCC(=O)N2CN3CN(C2)C(=O)CCSC[C@H](NC(=O)[C@H](Cc2ccc(O)cc2)NC(=O)[C@H](CCC(=O)O)NC(=O)[C@H](CO)NC1=O)C(=O)N[C@@H](Cc1ccccc1)C(=O)N[C@@H](Cc1c[nH]c2ccccc12)C(=O)N1CCC[C@H]1C(=O)N[C@@H](Cc1ccccc1)C(=O)N[C@@H](Cc1ccc(O)cc1)C(=O)N[C@@H](CO)C(=O)N[C@H](C(=O)N[C@@H](C)C(N)=O)CSCCC3=O [BCY17669, A-(SEQ ID NO: 2)-A] (H-ACSEYCFWPFYSCA-NH2; linker 2-6-13 via TATA) | 1200 | –
2 | CC(=O)N[C@H]1CSCCC(=O)N2CN3CN(C2)C(=O)CCSC[C@H](NC(=O)[C@H](Cc2ccc(O)cc2)NC(=O)[C@H](CCC(=O)O)NC(=O)[C@H](CO)NC1=O)C(=O)N[C@@H](Cc1ccccc1)C(=O)N[C@@H](Cc1c[nH]c2ccccc12)C(=O)N1CCC[C@H]1C(=O)N[C@@H](Cc1ccccc1)C(=O)N[C@@H](Cc1ccc(O)cc1)C(=O)N[C@@H](Cc1c[nH]cn1)C(=O)N[C@H](C(N)=O)CSCCC3=O [BCY18217, Ac-(SEQ ID NO: 1)] | 900 | –
3 | CC(=O)N[C@@H](C)C(=O)N[C@H]1CSCCC(=O)N2CN3CN(C2)C(=O)CCSC[C@H](NC(=O)[C@H](Cc2ccc(O)cc2)NC(=O)[C@H](CCC(=O)O)NC(=O)[C@H](CO)NC1=O)C(=O)N[C@@H](Cc1ccccc1)C(=O)N[C@@H](Cc1c[nH]c2ccccc12)C(=O)N1CCC[C@H]1C(=O)N[C@@H](Cc1ccccc1)C(=O)N[C@@H](Cc1ccc(O)cc1)C(=O)N[C@@H](Cc1c[nH]cn1)C(=O)N[C@H](C(=O)N[C@@H](C)C(N)=O)CSCCC3=O [BCY18218, Ac-A-(SEQ ID NO: 1)-A] (Ac-ACSEYCFWPFYHCA-NH2; linker 2-6-13 via TATA) | 2000 | –
4 | NC(=O)[C@@H]1CSCCC(=O)N2CN3CN(C2)C(=O)CCSC[C@H](N)C(=O)N[C@@H](CO)C(=O)N[C@@H](CCC(=O)O)C(=O)N[C@@H](Cc2ccc(O)cc2)C(=O)N[C@@H](CSCCC3=O)C(=O)N[C@@H](Cc2ccccc2)C(=O)N[C@@H](Cc2c[nH]c3ccccc23)C(=O)N2CCC[C@H]2C(=O)N[C@@H](Cc2ccccc2)C(=O)N[C@@H](Cc2ccc(O)cc2)C(=O)N[C@@H](Cc2c[nH]cn2)C(=O)N1 [BCY18219, SEQ ID NO: 1] | 700 | –
5 | C[C@H](N)C(=O)N[C@H]1CSCCC(=O)N2CN3CN(C2)C(=O)CCSC[C@H](NC(=O)[C@H](Cc2ccc(O)cc2)NC(=O)[C@H](CCC(=O)O)NC(=O)[C@H](C)NC1=O)C(=O)N[C@@H](Cc1ccccc1)C(=O)N[C@@H](Cc1c[nH]c2ccccc12)C(=O)N1CCC[C@H]1C(=O)N[C@@H](Cc1ccccc1)C(=O)N[C@@H](Cc1ccc(O)cc1)C(=O)N[C@@H](Cc1c[nH]cn1)C(=O)N[C@H](C(=O)N[C@@H](C)C(N)=O)CSCCC3=O [BCY18220, A-(SEQ ID NO: 24)-A] (H-ACAEYCFWPFYHCA-NH2; linker 2-6-13 via TATA) | 2000 | –
6 | C[C@H](N)C(=O)N[C@H]1CSCCC(=O)N2CN3CN(C2)C(=O)CCSC[C@H](NC(=O)[C@H](Cc2ccc(O)cc2)NC(=O)[C@H](C)NC(=O)[C@H](CO)NC1=O)C(=O)N[C@@H](Cc1ccccc1)C(=O)N[C@@H](Cc1c[nH]c2ccccc12)C(=O)N1CCC[C@H]1C(=O)N[C@@H](Cc1ccccc1)C(=O)N[C@@H](Cc1ccc(O)cc1)C(=O)N[C@@H](Cc1c[nH]cn1)C(=O)N[C@H](C(=O)N[C@@H](C)C(N)=O)CSCCC3=O [BCY18221, A-(SEQ ID NO: 25)-A] (H-ACSAYCFWPFYHCA-NH2; linker 2-6-13 via TATA) | 1800 | –
7 | CC(=O)N[C@H]1CSCCC(=O)N2CN3CN(C2)C(=O)CCSC[C@H](NC(=O)[C@H](Cc2ccc(O)cc2)NC(=O)[C@H](CCC(=O)O)NC(=O)[C@H](CO)NC1=O)C(=O)N[C@@H](Cc1ccccc1)C(=O)N[C@@H](Cc1cccc2ccccc12)C(=O)N1CCC[C@H]1C(=O)N[C@@H](Cc1ccccc1)C(=O)N[C@@H](Cc1ccc(O)cc1)C(=O)N[C@@H](Cc1c[nH]cn1)C(=O)N[C@H](C(N)=O)CSCCC3=O [BCY19669, Ac-(SEQ ID NO: 37)] (Ac-CSEYCF[1Nal]PFYHC-NH2; linker 1-5-12 via TATA) | 2000 | –
8 | CC(=O)N[C@H]1CSCCC(=O)N2CN3CN(C2)C(=O)CCSC[C@H](NC(=O)[C@H](Cc2ccc(O)cc2)NC(=O)[C@H](CCC(=O)O)NC(=O)[C@H](CO)NC1=O)C(=O)N[C@@H](Cc1ccccc1)C(=O)N[C@@H](Cc1c[nH]c2cc(Cl)ccc12)C(=O)N1CCC[C@H]1C(=O)N[C@@H](Cc1ccccc1)C(=O)N[C@@H](Cc1ccc(O)cc1)C(=O)N[C@@H](Cc1c[nH]cn1)C(=O)N[C@H](C(N)=O)CSCCC3=O [BCY19671, Ac-(SEQ ID NO: 42)] | 1000 | –
9 | C[C@H](N)C(=O)N[C@H]1CSCCC(=O)N2CN3CN(C2)C(=O)CCSC[C@H](NC(=O)[C@H](Cc2ccc(O)cc2)NC(=O)[C@H](Cc2ccc(O)cc2)NC(=O)[C@H](CO)NC1=O)C(=O)N[C@@H](Cc1ccccc1)C(=O)N[C@@H](Cc1c[nH]c2ccccc12)C(=O)N1CCC[C@H]1C(=O)N[C@@H](Cc1ccccc1)C(=O)N[C@@H](CCC(N)=O)C(=O)N[C@@H](CO)C(=O)N[C@H](C(=O)N[C@@H](C)C(N)=O)CSCCC3=O [BCY19766, A-(SEQ ID NO: 8)-A] (H-ACSYYCFWPFQSCA-NH2; linker 2-6-13 via TATA; C-terminus assumed) | 1000 | –
10 | C[C@H](N)C(=O)N[C@H]1CSCCC(=O)N2CN3CN(C2)C(=O)CCSC[C@H](NC(=O)[C@H](Cc2ccc(O)cc2)NC(=O)[C@H](CO)NC(=O)[C@H]([C@@H](C)O)NC1=O)C(=O)N[C@@H](Cc1ccccc1)C(=O)N[C@@H](Cc1c[nH]c2ccccc12)C(=O)N1CCC[C@H]1C(=O)N[C@@H](Cc1ccccc1)C(=O)N[C@@H](Cc1ccc(O)cc1)C(=O)N[C@@H](CCC(N)=O)C(=O)N[C@H](C(=O)N[C@@H](C)C(N)=O)CSCCC3=O [BCY19768, A-(SEQ ID NO: 10)-A] (H-ACTSYCFWPFYQCA-NH2; linker 2-6-13 via TATA; N-terminus and C-terminus assumed) | 900 | –
11 | C[C@H](N)C(=O)N[C@H]1CSCCC(=O)N2CN3CN(C2)C(=O)CCSC[C@H](NC(=O)[C@H](Cc2ccc(O)cc2)NC(=O)[C@H](CC(N)=O)NC(=O)[C@H]([C@@H](C)O)NC1=O)C(=O)N[C@@H](Cc1ccccc1)C(=O)N[C@@H](Cc1c[nH]c2ccccc12)C(=O)N1CCC[C@H]1C(=O)N[C@@H](Cc1ccccc1)C(=O)N[C@@H](Cc1c[nH]c2ccccc12)C(=O)N[C@@H](CO)C(=O)N[C@H](C(=O)N[C@@H](C)C(N)=O)CSCCC3=O [BCY19769, A-(SEQ ID NO: 11)-A] (H-ACTNYCFWPFWSCA-NH2; linker 2-6-13 via TATA) | 920 | –
12 | C[C@H](N)C(=O)N[C@H]1CSCCC(=O)N2CN3CN(C2)C(=O)CCSC[C@H](NC(=O)[C@H](Cc2ccc(O)cc2)NC(=O)[C@H](CC(N)=O)NC(=O)[C@H](CO)NC1=O)C(=O)N[C@@H](Cc1ccccc1)C(=O)N[C@@H](Cc1c[nH]c2ccccc12)C(=O)N1CCC[C@H]1C(=O)N[C@@H](Cc1ccccc1)C(=O)N[C@@H](Cc1c[nH]c2ccccc12)C(=O)N[C@@H](CCC(N)=O)C(=O)N[C@H](C(=O)N[C@@H](C)C(N)=O)CSCCC3=O [BCY19770, A-(SEQ ID NO: 12)-A] (H-ACSNYCFWPFWQCA-NH2; linker 2-6-13 via TATA; N-terminus and C-terminus assumed) | 1800 | –
13 | CC(C)C[C@@H]1NC(=O)[C@H](Cc2ccccc2)NC(=O)[C@H](Cc2ccccc2)NC(=O)[C@@H]2CCCN2C(=O)[C@H](Cc2c[nH]c3ccccc23)NC(=O)[C@H](Cc2ccccc2)NC(=O)[C@@H]2CSCCC(=O)N3CN(CN(C3)C(=O)CCSC[C@@H](C(=O)N[C@@H](C)C(N)=O)NC1=O)C(=O)CCSC[C@H](NC(=O)[C@H](C)N)C(=O)N[C@@H](CO)C(=O)N[C@@H](CCC(=O)O)C(=O)N[C@@H](Cc1ccc(O)cc1)C(=O)N2 [BCY19776, A-(SEQ ID NO: 15)-A] (H-ACSEYCFWPFFLCA-NH2; linker 2-6-13 via TATA) | 750 | –
14 | C[C@H](N)C(=O)N[C@H]1CSCCC(=O)N2CN3CN(C2)C(=O)CCSC[C@H](NC(=O)[C@H](Cc2ccc(O)cc2)NC(=O)[C@H](CC(N)=O)NC(=O)[C@H]([C@@H](C)O)NC1=O)C(=O)N[C@@H](Cc1ccccc1)C(=O)N[C@@H](Cc1c[nH]c2ccccc12)C(=O)N1CCC[C@H]1C(=O)N[C@@H](Cc1ccccc1)C(=O)N[C@@H](CCC(N)=O)C(=O)N[C@@H](CO)C(=O)N[C@H](C(=O)N[C@@H](C)C(N)=O)CSCCC3=O [BCY19780, A-(SEQ ID NO: 19)-A] (H-ACTNYCFWPFQSCA-NH2; linker 2-6-13 via TATA) | 2400 | –
15 | C[C@H](N)C(=O)N[C@H]1CSCCC(=O)N2CN3CN(C2)C(=O)CCSC[C@H](NC(=O)[C@H](Cc2ccc(O)cc2)NC(=O)[C@H](CC(N)=O)NC(=O)[C@H]([C@@H](C)O)NC1=O)C(=O)N[C@@H](Cc1ccccc1)C(=O)N[C@@H](Cc1c[nH]c2ccccc12)C(=O)N1CCC[C@H]1C(=O)N[C@@H](Cc1ccccc1)C(=O)N[C@@H](Cc1ccc(O)cc1)C(=O)N[C@@H](CO)C(=O)N[C@H](C(=O)N[C@@H](C)C(N)=O)CSCCC3=O [BCY19781, A-(SEQ ID NO: 20)-A] (H-ACTNYCFWPFYSCA-NH2; linker 2-6-13 via TATA) | 1400 | –
16 | CC(C)[C@@H]1NC(=O)[C@H](C)NC(=O)[C@H](Cc2ccccc2)NC(=O)[C@@H]2CCCN2C(=O)[C@H](Cc2c[nH]c3ccccc23)NC(=O)[C@H](Cc2ccccc2)NC(=O)[C@@H]2CSCCC(=O)N3CN(CN(C3)C(=O)CCSC[C@@H](C(=O)N[C@@H](C)C(N)=O)NC1=O)C(=O)CCSC[C@H](NC(=O)[C@H](C)N)C(=O)N[C@@H]([C@@H](C)O)C(=O)N[C@@H](CC(N)=O)C(=O)N[C@@H](Cc1ccc(O)cc1)C(=O)N2 [BCY19783, A-(SEQ ID NO: 22)-A] (H-ACTNYCFWPFAVCA-NH2; linker 2-6-13 via TATA) | 2700 | –
17 | CC(=O)N[C@H]1CSCCC(=O)N2CN3CN(C2)C(=O)CCSC[C@H](NC(=O)[C@H](Cc2ccc(O)cc2)NC(=O)[C@H](CCC(=O)O)NC(=O)[C@H](CO)NC1=O)C(=O)N[C@@H](Cc1ccccc1F)C(=O)N[C@@H](Cc1c[nH]c2ccccc12)C(=O)N1CCC[C@H]1C(=O)N[C@@H](Cc1ccccc1)C(=O)N[C@@H](Cc1ccc(O)cc1)C(=O)N[C@@H](Cc1c[nH]cn1)C(=O)N[C@H](C(N)=O)CSCCC3=O [BCY20051, Ac-(SEQ ID NO: 51)] | – | 2030
